Measurements published in US9364467B2 (Salix Pharmaceuticals, Ltd, priority 2012, dated 2016).
Converted amounts (≈) assume the structure as drawn.

Tested on: Enterobacteriaceae spp. strains
Assay: In vitro activity (MIC) against Enterobacteriaceae spp. strains

COC1/C=C/O[C@@]2(C)Oc3c(C)c(O)c4c(O)c(c5c(c4c3C2=O)NC2C=C(C)C=CN52)NC(=O)/C(C)=C\C=C\C(C)C(O)C(C)C(O)C(C)C(O)C1C (some centres unmarked) [25-desacetyl rifaximin]
MIC (Escherichia coli, E. coli 117): 256 µg/mL (≈ 343 µM) | MIC (Escherichia coli, E. coli 118): 128 µg/mL (≈ 172 µM) | MIC (Escherichia coli, E. coli 120): 128 µg/mL (≈ 172 µM) | MIC (Escherichia coli, E. coli 140): 256 µg/mL (≈ 343 µM) | MIC (Escherichia coli, E. coli 171): 128 µg/mL (≈ 172 µM) | MIC (Escherichia coli, E. coli 342): 128 µg/mL (≈ 172 µM) | MIC (Escherichia coli, E. coli 343): 256 µg/mL (≈ 343 µM) | MIC (Escherichia coli, E. coli 345): 128 µg/mL (≈ 172 µM) | MIC (Escherichia coli, E. coli 349): 128 µg/mL (≈ 172 µM) | MIC (Escherichia coli, E. coli 351): 128 µg/mL (≈ 172 µM) | MIC (Klebsiella aerogenes, E. aerogenes 235): 128 µg/mL (≈ 172 µM) | MIC (Klebsiella aerogenes, E. aerogenes 281): 128 µg/mL (≈ 172 µM) | MIC (Klebsiella aerogenes, E. aerogenes 290): 128 µg/mL (≈ 172 µM) | MIC (Klebsiella aerogenes, E. aerogenes 1023): 128 µg/mL (≈ 172 µM) | MIC (Klebsiella aerogenes, E. aerogenes 1030): 256 µg/mL (≈ 343 µM) | MIC (Klebsiella aerogenes, E. aerogenes 1031): 128 µg/mL (≈ 172 µM) | MIC (Klebsiella oxytoca, K. oxytoca 4): 128 µg/mL (≈ 172 µM) | MIC (Klebsiella oxytoca, K. oxytoca 18): 128 µg/mL (≈ 172 µM) | MIC (Klebsiella oxytoca, K. oxytoca 479): 128 µg/mL (≈ 172 µM) | MIC (Klebsiella oxytoca, K. oxytoca 499): 128 µg/mL (≈ 172 µM) | MIC (Klebsiella pneumoniae, K. pneumoniae 17): 128 µg/mL (≈ 172 µM) | MIC (Klebsiella pneumoniae, K. pneumoniae 19): 128 µg/mL (≈ 172 µM) | MIC (Klebsiella pneumoniae, K. pneumoniae 76): 256 µg/mL (≈ 343 µM) | MIC (Klebsiella pneumoniae, K. pneumoniae 80): 128 µg/mL (≈ 172 µM) | MIC (Klebsiella pneumoniae, K. pneumoniae 91): 128 µg/mL (≈ 172 µM) | MIC (Klebsiella pneumoniae, K. pneumoniae 1064): 128 µg/mL (≈ 172 µM) | MIC (Morganella morganii, M. morganii 42): 128 µg/mL (≈ 172 µM) | MIC (Morganella morganii, M. morganii 48): 128 µg/mL (≈ 172 µM) | MIC (Morganella morganii, M. morganii 50): 128 µg/mL (≈ 172 µM) | MIC (Morganella morganii, M. morganii 57): 256 µg/mL (≈ 343 µM) | MIC (Morganella morganii, M. morganii 67): 256 µg/mL (≈ 343 µM) | MIC (Morganella morganii, M. morganii 101): 128 µg/mL (≈ 172 µM) | MIC (Morganella morganii, M. morganii 105): 128 µg/mL (≈ 172 µM) | MIC (Morganella morganii, M. morganii 108): 128 µg/mL (≈ 172 µM) | MIC (Morganella morganii, M. morganii 453): 128 µg/mL (≈ 172 µM) | MIC (Morganella morganii, M. morganii 458): 256 µg/mL (≈ 343 µM) | MIC (Morganella morganii, M. morganii 461): 128 µg/mL (≈ 172 µM) | MIC (Morganella morganii, M. morganii 462): 128 µg/mL (≈ 172 µM) | MIC (Morganella morganii, M. morganii 923): 128 µg/mL (≈ 172 µM) | MIC (Morganella morganii, M. morganii 932): 128 µg/mL (≈ 172 µM) | MIC (Morganella morganii, M. morganii 935): 256 µg/mL (≈ 343 µM) | MIC (Morganella morganii, M. morganii 1006): 128 µg/mL (≈ 172 µM) | MIC (Proteus mirabilis, P. mirabilis 465): 128 µg/mL (≈ 172 µM) | MIC (Proteus mirabilis, P. mirabilis 466): 128 µg/mL (≈ 172 µM) | MIC (Proteus mirabilis, P. mirabilis 469): 128 µg/mL (≈ 172 µM) | MIC (Proteus mirabilis, P. mirabilis 470): 128 µg/mL (≈ 172 µM) | MIC (Proteus mirabilis, P. mirabilis 471): 256 µg/mL (≈ 343 µM) | MIC (Proteus mirabilis, P. mirabilis 472): 128 µg/mL (≈ 172 µM) | MIC (Proteus mirabilis, P. mirabilis 473): 128 µg/mL (≈ 172 µM) | MIC (Proteus mirabilis, P. mirabilis 477): 128 µg/mL (≈ 172 µM) | MIC (Proteus mirabilis, P. mirabilis 479): 128 µg/mL (≈ 172 µM) | MIC (Proteus mirabilis, P. mirabilis 480): 256 µg/mL (≈ 343 µM) | MIC (Proteus mirabilis, P. mirabilis 489): 128 µg/mL (≈ 172 µM) | MIC (Proteus mirabilis, P. mirabilis 928): 128 µg/mL (≈ 172 µM) | MIC (Proteus mirabilis, P. mirabilis 972): 128 µg/mL (≈ 172 µM) | MIC (Proteus mirabilis, P. mirabilis 983): 128 µg/mL (≈ 172 µM) | MIC (Proteus mirabilis, P. mirabilis 985): 256 µg/mL (≈ 343 µM) | MIC (Proteus mirabilis, P. mirabilis 987): 128 µg/mL (≈ 172 µM) | MIC (Proteus mirabilis, P. mirabilis 988): 128 µg/mL (≈ 172 µM) | MIC (Proteus mirabilis, P. mirabilis 990): 128 µg/mL (≈ 172 µM) | MIC (Proteus mirabilis, P. mirabilis 991): 128 µg/mL (≈ 172 µM) | MIC (Proteus mirabilis, P. mirabilis 993): 128 µg/mL (≈ 172 µM) | MIC (Proteus mirabilis, P. mirabilis 995): 128 µg/mL (≈ 172 µM) | MIC (Proteus mirabilis, P. mirabilis 996): 128 µg/mL (≈ 172 µM) | MIC (Proteus mirabilis, P. mirabilis 997): 128 µg/mL (≈ 172 µM) | MIC (Proteus mirabilis, P. mirabilis 998): 256 µg/mL (≈ 343 µM) | MIC (Providencia stuartii, P. stuartii 94): 128 µg/mL (≈ 172 µM) | MIC (Providencia stuartii, P. stuartii 299): 128 µg/mL (≈ 172 µM) | MIC (Providencia stuartii, P. stuartii 301): 128 µg/mL (≈ 172 µM) | MIC (Providencia stuartii, P. stuartii 306): 256 µg/mL (≈ 343 µM) | MIC (Providencia stuartii, P. stuartii 312): 128 µg/mL (≈ 172 µM) | MIC (Providencia stuartii, P. stuartii 459): 128 µg/mL (≈ 172 µM) | MIC (S. liquefaciens 55): 256 µg/mL (≈ 343 µM) | MIC (S. odorifera 59): 128 µg/mL (≈ 172 µM) | MIC (Serratia marcescens, S. marcescens 38): 128 µg/mL (≈ 172 µM) | MIC (Serratia marcescens, S. marcescens 45): 128 µg/mL (≈ 172 µM) | MIC (Serratia marcescens, S. marcescens 59): 128 µg/mL (≈ 172 µM) | MIC (Serratia marcescens, S. marcescens 63): 256 µg/mL (≈ 343 µM) | MIC (Stenotrophomonas maltophilia, S. maltophilia 1203): 128 µg/mL (≈ 172 µM) | MIC (Stenotrophomonas maltophilia, S. maltophilia 1208): 128 µg/mL (≈ 172 µM)
